Results on two compounds are retold here after patent publication US20010000523A1, “Carboxylated polymers complexes” (priority 1999, published 2001).

Structures are written as SMILES.

For this data set, the system named is eye. As to the kind of experiment: Primary eye irritation, protocol FHSLA 16 CFR 1500.42. It is filed as in vivo. The note with it: products tested at 25% actives. Here is the method:
Eye irritation is a major concern in the formulation of personal care products, particularly when working with quats. Primary eye irritation was tested using the protocol outlined in FHSLA 16 CFR 1500.42. The products were tested at 25% actives.

For `CCCCCCCCCCCCCCCCCC[N+](C)(C)Cc1ccccc1.[Cl-]` [Stearalkonium Chloride], the Description entry was “Severely Irritating” and the Score is 116.5.

In the case of `CCCCCCCCCCCCCCCCCC[N+](C)(C)C.[Cl-]` [Stearyl trimethyl ammonium chloride], the Description entry is “Severely Irritating” and the Score is 106.0.
